Earlier results as cited in patent publication US10231936B2, “Delayed release pharmaceutical formulations” (Euro-Celtique S.A., priority 2000, dated 2019).
Structures can show the parent of a compound that is named as a salt. Where two headings read alike, the source gives them in different places.

Assays:
[1] = spheroids in capsules
[2] = by mouth
[3] = conventional normal release dosage form

Row | SMILES | bioavailability [2] | elimination half-life [3] | also measured
1 | CCCC1O[C@@H]2C[C@H]3[C@@H]4CCC5=CC(=O)C=C[C@]5(C)[C@H]4[C@@H](O)C[C@]3(C)[C@]2(C(=O)CO)O1 (stereo partly drawn) [Budesonide] | – | – | total absorbed Budesonide absorbed in the ileum and ascending colon ([1]; fasting healthy subjects): 68%; total absorbed Budesonide absorbed in the ileum and ascending colon ([1]; fed healthy subjects): 69%
2 | CCC(=O)O[C@]1(C(=O)SCF)[C@H](C)C[C@H]2[C@@H]3C[C@H](F)C4=CC(=O)C=C[C@]4(C)[C@@]3(F)[C@@H](O)C[C@@]21C [Fluticasone, Fluticasone Propionate] | low bioavailability | – | –
3 | C[C@]12C=CC(=O)C=C1CC[C@@H]1[C@@H]2[C@@H](O)C[C@@]2(C)[C@H]1CC[C@]2(O)C(=O)COC(=O)c1cccc(S(=O)(=O)[O-])c1.[Na+] [PSMB, Prednisolone sodium metasulphobenzoate] | very low bioavailability | – | –
4 | Cc1ccc(-c2nc3ccc(C)cn3c2CC(=O)N(C)C)cc1 [Zolpidem tartrate] | – | ~2 h | –
5 | CN1CCN(C(=O)OC2c3nccnc3C(=O)N2c2ccc(Cl)cn2)CC1 (stereo not drawn) [Zopiclone] | – | ~2 h | –
